Assay results: patent US20230017045A1, “PYRIDINE AND PYRIMIDINE CARBOXYLATE HERBICIDES AND METHODS OF USE THEREOF” (Dow AgroSciences LLC, priority 2017, published 2023)
Like-named read-outs stand apart in the source and are kept apart here.

Test system: test plant species
Assay: Post-emergent herbicidal activity test (greenhouse, foliar spray, visual growth reduction)
Type: in vivo
Details: post-emergence, 336 h, 140 g ai/ha
Description: Post-emergent Test: Seeds or nutlets of the desired test plant species were planted in Sun Gro Metro-Mix® 360 planting mixture, which typically has a pH of 6.0 to 6.8 and an organic matter content of about 30 percent, in plastic pots with a surface area of 64 square centimeters. In some aspects, to ensure good germination and healthy plants, a fungicide treatment and/or other chemical or physical treatment was applied. The plants were grown for 7-21 d in a greenhouse with an approximate 15 h photoperiod which was maintained at 23-29° C. during the day and 22-28° C. during the night. Nutrients and water were added on a regular basis and supplemental lighting was provided with overhead metal halide 1000-Watt lamps as necessary. Plants were used for testing when they reached the first or second true leaf stage. A weighed amount, determined by the highest rate to be tested, of each test compound was placed in a 25 mL glass vial and was dissolved in 4 mL of a 97:3 v/v mixture of acetone and DMSO to obtain concentrated stock solutions. […] The concentrated stock solutions obtained were diluted with 20 mL of an aqueous mixture containing acetone, water, isopropyl alcohol, DMSO, […] crop oil concentrate, and X-77 surfactant in a 48.5:39:10:1.5:1.0:0.02 v/v ratio to obtain spray solutions containing the application rate. Compound requirements are based upon a 12 mL application volume at a rate of 187 liters per hectare (L/ha). Formulated compounds were applied to the plant material with an overhead Mandel track sprayer equipped with […] nozzles calibrated to deliver 187 L/ha over an application area of 0.64 square meters at a spray height of 18 inches (43 cm) above the average plant canopy height. Control plants were sprayed in the same manner with the solvent blank. The treated plants and control plants were placed in a greenhouse as described above and watered by subirrigation to prevent wash-off of the test compounds. After 14 d, the condition of the test plants as compared with that of the nontreated and control plants was determined visually and scored on a scale of 0 to 100 percent where 0 corresponds to no injury and 100 corresponds to complete control. In the reporting of the results, Table A: Percent Growth Reduction Conversion Table was used.

[1] = ALOMY: blackgrass (Alopecurus myosuroides), 14 days after application, read-out: Visual Growth Reduction (%) 14 Days After Application, ALOMY
[2] = AMARE: redroot pigweed (Amaranthus retroflexus), 14 days after application, read-out: Visual Growth Reduction (%) 14 Days After Application, AMARE
[3] = AVEFA: wild oat (Avena fatua), 14 days after application, read-out: Visual Growth Reduction (%) 14 Days After Application, AVEFA
[4] = CHEAL: lambsquarters (Chenopodium album), 14 days after application, read-out: Visual Growth Reduction (%) 14 Days After Application, CHEAL
[5] = CIRAR: canada thistle (Cirsium arvense), 14 days after application, read-out: Visual Growth Reduction (%) 14 Days After Application, CIRAR
[6] = CYPES: yellow nutsedge (Cyperus esculentus), 14 days after application, read-out: Visual Growth Reduction (%) 14 Days After Application, CYPES
[7] = DIGSA: crabgrass (Digitaria sanguinalis), 14 days after application, read-out: Visual Growth Reduction (%) 14 Days After Application, DIGSA
[8] = ECHCG: barnyardgrass (Echinochloa crus-galli), 14 days after application, read-out: Visual Growth Reduction (%) 14 Days After Application, ECHCG
[9] = IPOHE: ivy-leaf morning glory (Ipomoea hederacea), 14 days after application, read-out: Visual Growth Reduction (%) 14 Days After Application, IPOHE
[10] = ORYSA: rice (Oryza sativa), 14 days after application, read-out: Visual Growth Reduction (%) 14 Days After Application, ORYSA
[11] = SETFA: giant foxtail (Setaria faberi), 14 days after application, read-out: Visual Growth Reduction (%) 14 Days After Application, SETFA
[12] = SORVU: grain sorghum (Sorghum vulgare), 14 days after application, read-out: Visual Growth Reduction (%) 14 Days After Application, SORVU
[13] = STEME: common chickweed (Stellaria media), 14 days after application, read-out: Visual Growth Reduction (%) 14 Days After Application, STEME
[14] = TRZAS: wheat, spring (Triticum aestivum), 14 days after application, read-out: Visual Growth Reduction (%) 14 Days After Application, TRZAS

Q: With `COC(=O)c1nc(-c2ccc(C(F)(F)F)cc2F)ccc1Cl` [F12, Methyl 3-chloro-6-(2-fluoro-4-(trifluoromethyl)phenyl)picolinate] as the molecule, how does the pest or weed control at 140 g/ha [1] read?
A: 0 to 29%

Q: What about the pest or weed control at 140 g/ha [2] of the same molecule?
A: 85 to 94%

Q: And the pest or weed control at 140 g/ha [3]?
A: 0 to 29%

Q: What about the pest or weed control at 140 g/ha [4] of the same molecule?
A: 95 to 100%

Q: What about the pest or weed control at 140 g/ha [5] of the same molecule?
A: 60 to 74%

Q: What about the pest or weed control at 140 g/ha [6] of the same molecule?
A: 60 to 74%

Q: What about the pest or weed control at 140 g/ha [7] of the same molecule?
A: 75 to 84%

Q: What about the pest or weed control at 140 g/ha (barnyardgrass (Echinochloa crus-galli), 14 Days After Application, read-out: Visual Growth Reduction (%) ECHCG) of the same molecule?
A: 0 to 29%

Q: And the pest or weed control at 140 g/ha (common chickweed (Stellaria media), 14 Days After Application, read-out: Visual Growth Reduction (%) STEME)?
A: 0 to 29%

Q: And the pest or weed control at 140 g/ha (giant foxtail (Setaria faberi), 14 Days After Application, read-out: Visual Growth Reduction (%) SETFA)?
A: 0 to 29%

Q: What about the pest or weed control at 140 g/ha (ivy-leaf morning glory (Ipomoea hederacea), 14 Days After Application, read-out: Visual Growth Reduction (%) IPOHE) of the same molecule?
A: 95 to 100%

Q: What about the pest or weed control at 140 g/ha (johnsongrass (Sorghum vulgare), 14 Days After Application, read-out: Visual Growth Reduction (%) SORVU) of the same molecule?
A: 75 to 84%

Q: What about the pest or weed control at 140 g/ha (kochia (Bassia scoparia), 14 Days After Application, read-out: Visual Growth Reduction (%) KCHSC) of the same molecule?
A: 0 to 29%

Q: What about the pest or weed control at 140 g/ha (rice (Oryza sativa), 14 Days After Application, read-out: Visual Growth Reduction (%) ORYSA) of the same molecule?
A: 0 to 29%

Q: And the pest or weed control at 140 g/ha (wheat, spring (Triticum aestivum), 14 Days After Application, read-out: Visual Growth Reduction (%) TRZAS)?
A: 0 to 29%

Q: How did the pest or weed control at 140 g/ha [1] turn out when `COc1c(Cl)ccc(-c2cc(Cl)c(Cl)c(C(=O)O)n2)c1F` [F75, 3,4-Dichloro-6-(4-chloro-2-fluoro-3-methoxyphenyl) picolinic acid] was run?
A: 0 to 29%

Q: What about the pest or weed control at 140 g/ha [2] of the same molecule?
A: 85 to 94%

Q: What about the pest or weed control at 140 g/ha [3] of the same molecule?
A: 0 to 29%

Q: What about the pest or weed control at 140 g/ha [4] of the same molecule?
A: 95 to 100%

Q: What about the pest or weed control at 140 g/ha [5] of the same molecule?
A: 30 to 44%

Q: What about the pest or weed control at 140 g/ha [6] of the same molecule?
A: 0 to 29%

Q: And the pest or weed control at 140 g/ha [7]?
A: 0 to 29%

Q: What about the pest or weed control at 140 g/ha [8] of the same molecule?
A: 95 to 100%

Q: And the pest or weed control at 140 g/ha [9]?
A: 30 to 44%

Q: And the pest or weed control at 140 g/ha [10]?
A: 0 to 29%

Q: What about the pest or weed control at 140 g/ha [11] of the same molecule?
A: 45 to 59%

Q: What about the pest or weed control at 140 g/ha [12] of the same molecule?
A: 0 to 29%

Q: What about the pest or weed control at 140 g/ha [13] of the same molecule?
A: 30 to 44%

Q: And the pest or weed control at 140 g/ha [14]?
A: 0 to 29%

Q: How did the pest or weed control at 140 g/ha [8] turn out when `COC(=O)c1nc(-c2cc(F)c(C(F)(F)F)cc2OC)ccc1Cl` [F362, Methyl 3-chloro-6-(5-fluoro-2-methoxy-4-(trifluoromethyl)phenyl)picolinate] was run?
A: 0 to 29%

Q: And the pest or weed control at 140 g/ha [9]?
A: 95 to 100%

Q: And the pest or weed control at 140 g/ha (KCHSC: kochia (Bassia scoparia), 14 days after application, read-out: Visual Growth Reduction (%) 14 Days After Application, KCHSC)?
A: 30 to 44%

Q: And the pest or weed control at 140 g/ha [10]?
A: 0 to 29%

Q: What about the pest or weed control at 140 g/ha [11] of the same molecule?
A: 60 to 74%

Q: And the pest or weed control at 140 g/ha [12]?
A: 85 to 94%

Q: What about the pest or weed control at 140 g/ha [13] of the same molecule?
A: 0 to 29%

Q: And the pest or weed control at 140 g/ha [14]?
A: 0 to 29%

Q: And the pest or weed control at 140 g/ha (blackgrass (Alopecurus myosuroides), 14 Days After Application, read-out: Visual Growth Reduction (%) ALOMY)?
A: 0 to 29%

Q: What about the pest or weed control at 140 g/ha (canada thistle (Cirsium arvense), 14 Days After Application, read-out: Visual Growth Reduction (%) CIRAR) of the same molecule?
A: 0 to 29%

Q: What about the pest or weed control at 140 g/ha (crabgrass (Digitaria sanguinalis), 14 Days After Application, read-out: Visual Growth Reduction (%) DIGSA) of the same molecule?
A: 45 to 59%

Q: What about the pest or weed control at 140 g/ha (lambsquarters (Chenopodium album), 14 Days After Application, read-out: Visual Growth Reduction (%) CHEAL) of the same molecule?
A: 85 to 94%

Q: What about the pest or weed control at 140 g/ha (redroot pigweed (Amaranthus retroflexus), 14 Days After Application, read-out: Visual Growth Reduction (%) AMARE) of the same molecule?
A: 95 to 100%

Q: And the pest or weed control at 140 g/ha (wild oat (Avena fatua), 14 Days After Application, read-out: Visual Growth Reduction (%) AVEFA)?
A: 0 to 29%

Q: What about the pest or weed control at 140 g/ha (yellow nutsedge (Cyperus esculentus), 14 Days After Application, read-out: Visual Growth Reduction (%) CYPES) of the same molecule?
A: 0 to 29%
